For 26 compounds, IC50 results are on record in US11548899B2, “Fused 1,4-oxazepines and related analogs as BET bromodomain inhibitors” (THE REGENTS OF THE UNIVERSITY OF MICHIGAN, priority 2016, dated 2023).

Where “and” joins values, the source holds several entries; their conditions need not be identical. Equal entries are not always repeated. Where two headings read alike, the source gives them in different places. A value given as a limit tells only on which side of the number the result lay.

One test addresses T1, recombinant BRD4 BD2 (Homo sapiens, UniProt O60885).
T1 construct: recombinant BRD4 BD1 and BRD4 BD2 proteins
Description: Competitive fluorescence-polarization (FP) binding assay, BRD4 BD2. The conditions noted are these: protein 6 nM, probe 1.5 nM.

A further test deals with MOLM-13. Description: Cell growth inhibition, 4-day proliferation assay, MOLM-13. The class given is cell-based. The conditions noted are these: read-out: Cell Viability (IC50, μM) MOLM-13. As for the experimental part: The effect of representative Compounds of the Disclosure on cell viability was determined in a 4-day proliferation assay. Cells were maintained in the appropriate culture medium with 10% FBS at 37° C. and an atmosphere of 5% CO2. All the cell lines were used within three months of thawing fresh vials.
Cells were seeded in 96-well flat bottom (Corning COSTAR, Corning, N.Y., cat #3595) or white opaque cell culture plates (BD Falcon, cat #353296) at a density of 3,000-10,000 cells/well in 75 μl of culture medium. Compounds were serially diluted in the appropriate medium, and 75 μl of the diluted compounds were added to the appropriate wells of the cell plate. After the addition of compounds, the cells were incubated at 37° C. in an atmosphere of 5% CO2 for 4 days. Cell viability was determined using the CellTiter-Glo® Luminescent Cell Viability Assay Kit (Promega, Madison, Wis.) for leukemia cells and WST (2-(2-methoxy-4-nitrophenyl)-3-(4-nitrophenyl)-5-(2,4-disulfophenyl)-2H-tetrazolium, monosodium salt) Cell Counting-8 Kit (Dojindo Molecular Technologies, Inc., Rockville, Md.) for adhenrent cells according to the manufacturers' instructions. […]
For CellTiter-Glo assay (suspension cells), 100 μl of CellTiter-Glo® Reagent was added to each well, and then the plates were incubated at room temperature for 10-20 minutes. The luminescent signal was measured using a Tecan Infinite M1000 multimode microplate reader (Tecan, Morrisville, N.C.). The readings were normalized to the DMSO-treated cells and the IC50 was calculated by nonlinear regression (four parameters sigmoid fitted with variable slope, least squares fit, and no constraint) analysis using the GraphPad Prism 5 software. See US 2014/0256706.

The target in the next test is T2, recombinant BRD4 BD1 (Homo sapiens, UniProt O60885).
T2 construct: recombinant BRD4 BD1 and BRD4 BD2 proteins
Description: Competitive fluorescence-polarization (FP) binding assay, BRD4 BD1. The conditions noted are these: protein 10 nM, probe 1.5 nM.

Setting [1] is: Homo sapiens, MOLM-13, 96 h, 4 days incubation, MOLM-13 cells.
Setting [2] is: FP competitive binding, read-out: IC50 (nM) BRD4 BD1.

Description for recombinant BRD4 BD1: Fluorescence Polarization (FP) competitive binding studies were carried out using a FAM labeled fluorescent probe, see Cpd. […] Equilibrium dissociation constants (Kd) values of the fluorescent probe to BRD4 BD1 and BD2 proteins were determined from protein saturation experiments by monitoring the total fluorescence polarization of mixtures composed with the fluorescent probe at a fixed concentration and proteins with increasing concentrations up to full saturation. […] Plates were incubated at room temperature for 30 minutes with gentle shaking to assure equilibrium.
The IC50 and Ki values of compounds were determined in a competitive binding experiment. […] Mixtures of 10 μl of the tested compounds in assay buffer with 40% Ethylene Glycol and 190 μl of preincubated protein/probe complex solution in the assay buffer (100 mM potassium phosphate, pH 6.5, 0.01% Triton X-100) were added into assay plates which were incubated at room temperature for 30 minutes with gentle shaking. Final concentrations of proteins were 10 and 6 nM in assays for BRD4 BD1 and BD2, respectively. […] FP values were measured as described above. IC50 values were determined by nonlinear regression fitting of the competition curves.
Description for recombinant BRD4 BD2: Fluorescence Polarization (FP) competitive binding studies were carried out using a FAM labeled fluorescent probe, see Cpd. […] Equilibrium dissociation constants (Kd) values of the fluorescent probe to BRD4 BD1 and BD2 proteins were determined from protein saturation experiments by monitoring the total fluorescence polarization of mixtures composed with the fluorescent probe at a fixed concentration and proteins with increasing concentrations up to full saturation. Serial dilutions of testing proteins were mixed with the fluorescent probe to a final volume of 200 μl in the assay buffer (100 mM phosphate buffer, pH=6.5, 0.01% Triton X-100 (Sigma, 282103) being added right before assays). Final fluorescent probe concentration was 1.5 nM for both proteins. Plates were incubated at room temperature for 30 minutes with gentle shaking to assure equilibrium. FP values in millipolarization units (mP) were measured using the Infinite M-1000 plate reader (Tecan U.S., Research Triangle Park, N.C.) in Microfluor 1 96-well, black, round-bottom plates (Thermo Scientific, Waltham, Mass.) at an excitation wavelength of 485 nm and an emission wavelength of 530 nm.
The IC50 and Ki values of compounds were determined in a competitive binding experiment. […] Mixtures of 10 μl of the tested compounds in assay buffer with 40% Ethylene Glycol and 190 μl of preincubated protein/probe complex solution in the assay buffer (100 mM potassium phosphate, pH 6.5, 0.01% Triton X-100) were added into assay plates which were incubated at room temperature for 30 minutes with gentle shaking. Final concentrations of proteins were 10 and 6 nM in assays for BRD4 BD1 and BD2, respectively. Final probe concentration is 1.5 nM in both assays. […] FP values were measured as described above. IC50 values were determined by nonlinear regression fitting of the competition curves.

On to `Cc1sc2c(c1Cc1cccc(Cl)c1)COCc1nnc(C)n1-2` [Cpd. No. 8, 3-(3-chlorobenzyl)-2,9-dimethyl-4H,6H-thieno[2,3-e][1,2,4]triazolo[3,4-c][1,4]oxazepine], for which the results for the half-inhibitory concentration (IC50) on recombinant BRD4 BD2, in the test with MOLM-13 (setting [1]) and at recombinant BRD4 BD1 (setting [2]) were 285 nM, 2.5 µM and 311 nM, respectively.

On to `Cc1sc2c(c1Cc1ccc(Cl)cc1)COCc1nnc(C)n1-2` [Cpd. No. 9, 3-(4-chlorobenzyl)-2,9-dimethyl-4H,6H-thieno[2,3-e][1,2,4]triazolo[3,4-c][1,4]oxazepine], for which the concentration for half-maximal inhibition (IC50) at recombinant BRD4 BD2 was 271 nM; in the test on MOLM-13 (setting [1]), 1 µM; at recombinant BRD4 BD1 (setting [2]) it was 88.4 nM.

For `Cc1sc2c(c1Cc1ccccc1Cl)COCc1nnc(C)n1-2` [Cpd. No. 10, 3-(2-chlorobenzyl)-2,9-dimethyl-4H,6H-thieno[2,3-e][1,2,4]triazolo[3,4-c][1,4]oxazepine], the concentration for half-maximal inhibition (IC50) on recombinant BRD4 BD2 was found to be 312 nM; in the test with MOLM-13 (setting [1]) it was 3.4 µM; at recombinant BRD4 BD1 (setting [2]) it was 263 nM.

As to `Cc1sc2c(c1Cc1ccccc1)CN(C(=O)OCc1ccccc1)[C@H](C)c1nnc(C)n1-2` [Cpd. No. 16, benzyl (R)-3-benzyl-2,6,9-trimethyl-4H-thieno[3,2-f][1,2,4]triazolo[4,3-a][1,4]diazepine-5(6H)-carboxylate], the half-inhibitory concentration (IC50) on recombinant BRD4 BD2 was 326 nM; in the test with MOLM-13 (setting [1]) it was 2.8 µM; at recombinant BRD4 BD1 (setting [2]), 229 nM.

With `CCOC(=O)N1Cc2c(sc(C)c2Cc2ccccc2)-n2c(C)nnc2[C@@H]1C` [Cpd. No. 18, ethyl (S)-3-benzyl-2,6,9-trimethyl-4H-thieno[3,2-f][1,2,4]triazolo[4,3-a][1,4]diazepine-5(6H)-carboxylate], the half-inhibitory concentration (IC50) at recombinant BRD4 BD2 worked out at 601 nM; in the test with MOLM-13 (Homo sapiens, MOLM-13, 96 h), 4.3 µM; on recombinant BRD4 BD1 (setting [2]), 532 nM.

On to `Cc1sc2c(c1Cc1ccccc1)CN(C)[C@@H](C)c1nnc(C)n1-2` [Cpd. No. 20, (S)-3-benzyl-2,5,6,9-tetramethyl-5,6-dihydro-4H-thieno[3,2-f][1,2,4]triazolo[4,3-a][1,4]diazepine], for which the IC50 at recombinant BRD4 BD2 is 636 nM and 1210 nM; in the test with MOLM-13 (setting [1]), 1.3 µM; on recombinant BRD4 BD1 (setting [2]), 235 nM and 340 nM.

As to `C=C(c1ccccc1)c1c(C)sc2c1COCc1nnc(C)n1-2` [Cpd. No. 24, 2,9-dimethyl-3-(1-phenylvinyl)-4H,6H-thieno[2,3-e][1,2,4]triazolo[3,4-c][1,4]oxazepine], the concentration for half-maximal inhibition (IC50) at recombinant BRD4 BD2 was determined as 492 nM; with MOLM-13 (setting [1]) it was 3.4 µM; on recombinant BRD4 BD1 (setting [2]) it was 491 nM.

Turning to `Cc1sc2c(c1Cc1ccccc1)CN(CC1CC1)[C@@H](C)c1nnc(C)n1-2` [Cpd. No. 27, (S)-3-benzyl-5-(cyclopropylmethyl)-2,6,9-trimethyl-5,6-dihydro-4H-thieno[3,2-f][1,2,4]triazolo[4,3-a][1,4]diazepine], the IC50 is 2610 nM on recombinant BRD4 BD2, greater than 5 µM in the test on MOLM-13 (setting [1]) and 611 nM at recombinant BRD4 BD1 (setting [2]).

On to `Cc1sc2c(c1C(C)c1ccccc1)COCc1nnc(C)n1-2` (stereo not shown) [Cpd. No. 28, 2,9-dimethyl-3-(1-phenylethyl)-4H,6H-thieno[2,3-e][1,2,4]triazolo[3,4-c][1,4]oxazepine], for which the IC50 on recombinant BRD4 BD2 is 749 nM; with MOLM-13 (setting [1]) it was 4.7 µM; at recombinant BRD4 BD1 (setting [2]), 772 nM.

`Cc1nnc2n1-c1sc(Br)c(Cc3ccccc3)c1COC2` [Cpd. No. 31, 3-benzyl-2-bromo-9-methyl-4H,6H-thieno[2,3-e][1,2,4]triazolo[3,4-c][1,4]oxazepine]: the half-maximal inhibitory concentration (IC50) was 1.7 µM in the test on MOLM-13 (4 days incubation, MOLM-13 cells); 1.4 µM in the test on MOLM-13 (setting [1]); 209 nM and 265 nM and 352 nM on recombinant BRD4 BD1 (setting [2]).

For `Cc1nnc2n1-c1sc(-c3ccc(N)nc3)c(Cc3ccccc3)c1COC2` [Cpd. No. 32, 5-(3-benzyl-9-methyl-4H,6H-thieno[2,3-e][1,2,4]triazolo[3,4-c][1,4]oxazepin-2-yl)pyridin-2-amine], the figures for the half-maximal inhibitory concentration (IC50) in the test with MOLM-13 (setting [1]) and on recombinant BRD4 BD1 (setting [2]) were 1.9 µM and 294 nM, respectively.

As for `C#Cc1sc2c(c1Cc1ccccc1)COCc1nnc(C)n1-2` [Cpd. No. 33, 3-benzyl-2-ethynyl-9-methyl-4H,6H-thieno[2,3-e][1,2,4]triazolo[3,4-c][1,4]oxazepine], the IC50 with MOLM-13 (setting [1]) was 1 µM.

Consider `Cc1sc2c(c1Cc1ccccc1)CN(C)[C@H](C)c1nnc(C)n1-2` [Cpd. No. 34, (R)-3-benzyl-2,5,6,9-tetramethyl-5,6-dihydro-4H-thieno[3,2-f][1,2,4]triazolo[4,3-a][1,4]diazepine], for which, in the test with MOLM-13 (setting [1]), the IC50 was 1 µM.

On to `Cc1sc2c(c1Cc1ccccc1)CN(C)Cc1nnc(C)n1-2` [Cpd. No. 35, 3-benzyl-2,5,9-trimethyl-5,6-dihydro-4H-thieno[3,2-f][1,2,4]triazolo[4,3-a][1,4]diazepine], for which the IC50 in the test on MOLM-13 (setting [1]) came out at 2.2 µM; at recombinant BRD4 BD1 (setting [2]), 602 nM.

As to `Cc1nnc2n1-c1cccc(Cc3ccc(OC(F)(F)F)cc3)c1COC2` [Cpd. No. 45, 1-methyl-7-(4-(trifluoromethoxy)benzyl)-4,6-dihydrobenzo[e][1,2,4]triazolo[3,4-c][1,4]oxazepine], the values for the IC50 at recombinant BRD4 BD2 and on recombinant BRD4 BD1 (setting [2]) were 1370 nM and 1550 nM, respectively.

With `Cc1nnc2n1-c1cccc(C(C)c3ccccc3)c1COC2` (stereo not shown) [Cpd. No. 46, 1-methyl-7-(1-phenylethyl)-4,6-dihydrobenzo[e][1,2,4]triazolo[3,4-c][1,4]oxazepine], the IC50 turned out to be 268 nM at recombinant BRD4 BD2, 2.9 µM in the test with MOLM-13 (setting [1]) and 807 nM at recombinant BRD4 BD1 (setting [2]).

Turning to `Cc1nnc2n1-c1cccc(C3CCc4ccccc43)c1COC2` (stereo not shown) [Cpd. No. 47, 7-(2,3-dihydro-1H-inden-1-yl)-1-methyl-4,6-dihydrobenzo[e][1,2,4]triazolo[3,4-c][1,4]oxazepine], the concentration for half-maximal inhibition (IC50) at recombinant BRD4 BD2 was determined as 303 nM; at recombinant BRD4 BD1 (setting [2]), 1200 nM.

For `Cc1sc2c(c1C1=CCCc3ccccc31)COCc1nnc(C)n1-2` [Cpd. No. 51, 3-(3,4-dihydronaphthalen-1-yl)-2,9-dimethyl-4,6-dihydrothieno[2,3-e][1,2,4]triazolo[3,4-c][1,4]oxazepine], the half-maximal inhibitory concentration (IC50) on recombinant BRD4 BD2 was 207 nM; on recombinant BRD4 BD1 (setting [2]), 256 nM.

With `Cc1nnc2n1-c1cccc(C(=O)c3ccccc3)c1COC2` [Cpd. No. 52, (1-methyl-4,6-dihydrobenzo[e][1,2,4]triazolo[3,4-c][1,4]oxazepin-7-yl)(phenyl)methanone], the half-maximal inhibitory concentration (IC50) at recombinant BRD4 BD2 and at recombinant BRD4 BD1 (setting [2]) was greater than 10000 nM in each case.

As to `Cc1sc2c(c1C1CCCc3ccccc31)COCc1nnc(C)n1-2` (stereo not shown) [Cpd. No. 54, 2,9-dimethyl-3-(1,2,3,4-tetrahydronaphthalen-1-yl)-4,6-dihydrothieno[2,3-e][1,2,4]triazolo[3,4-c][1,4]oxazepine], the half-inhibitory concentration (IC50) at recombinant BRD4 BD2 was 127 nM; at recombinant BRD4 BD1 (setting [2]), 210 nM.

Take `Cc1nnc2n1-c1ccc(Cl)c(Cc3ccccc3)c1COC2` [Cpd. No. 71, 7-benzyl-8-chloro-1-methyl-4,6-dihydrobenzo[e][1,2,4]triazolo[3,4-c][1,4]oxazepine]: the 50% inhibitory concentration (IC50) turned out to be 3.8 µM with MOLM-13 (Homo sapiens, MOLM-13, 96 h) and 864 nM on recombinant BRD4 BD1 (IC50 (nM) BRD4 BD1, FP competitive binding).

Take `Cc1nnc2n1-c1ccc(-c3cnn(C)c3)c(Cc3ccccc3)c1COC2` [Cpd. No. 73, 7-benzyl-1-methyl-8-(1-methyl-1H-pyrazol-4-yl)-4,6-dihydrobenzo[e][1,2,4]triazolo[3,4-c][1,4]oxazepine]: the IC50 is 1.1 µM in the test with MOLM-13 (setting [1]); 234 nM and 366 nM on recombinant BRD4 BD1 (setting [2]).

`Cc1sc2c(c1Cn1cccn1)COCc1nnc(C)n1-2` [Cpd. No. 112, 3-((1H-pyrazol-1-yl)methyl)-2,9-dimethyl-4H,6H-thieno[2,3-e][1,2,4]triazolo[3,4-c][1,4]oxazepine]: the IC50 on recombinant BRD4 BD2 is 3230 nM and 3850 nM and 3950 nM; on recombinant BRD4 BD1 (setting [2]), 1370 nM and 2610 nM and 1760 nM.

As for `Cc1sc2c(c1Cc1ccccc1)CO[C@H](C)c1nnc(C)n1-2` [Cpd. No. 114, (R)-3-benzyl-2,6,9-trimethyl-4H,6H-thieno[2,3-e][,2,4]triazolo[3,4-c][1,4]oxazepine], the IC50 came out at 297 nM at recombinant BRD4 BD2 and 249 nM on recombinant BRD4 BD1 (setting [2]).

For `Cc1sc2c(c1Cc1ccccc1)COC(CC(=O)OC(C)(C)C)c1nnc(C)n1-2` (stereo not shown) [Cpd. No. 115, tert-butyl 2-(3-benzyl-2,9-dimethyl-4H,6H-thieno[2,3-e][1,2,4]triazolo[3,4-c][1,4]oxazepin-6-yl)acetate], the IC50 at recombinant BRD4 BD2 worked out at 338 nM; at recombinant BRD4 BD1 (setting [2]), 170 nM.

With `Cc1sc2c(c1Br)CN(C(=O)OCc1ccccc1)[C@@H](C)c1nnc(C)n1-2` [Cpd. No. 147, benzyl (S)-3-bromo-2,6,9-trimethyl-4H-thieno[3,2-f][1,2,4]triazolo[4,3-a][1,4]diazepine-5(6H)-carboxylate], the IC50 at recombinant BRD4 BD2 worked out at 83700 nM; on recombinant BRD4 BD1 (setting [2]) it was 48600 nM.

A word on the IC50: it is the concentration at which inhibition is half-maximal.
